In patent publication US20090022757A1, “Method for treating photoreceptor cell degeneration” (priority 2007, published 2009):

Key:
[1] = tested on: rat retinal photoreceptor; assay: Electroretinogram of rats treated with different MNU dosages; details: for Number of Eyes with extinguished electroretinogram: n = 10
[2] = tested on: rat retinal photoreceptor cells; assay: Pathological examination (damage score) of retinal photoreceptor cells in rats treated with different MNU dosages

CN(N=O)C(N)=O [MNU, N-methyl-N-nitrosourea]
initial dosage that could cause maximum decrease of a-wave and b-wave amplitudes of electroretinogram [1]: 40 mg/kg
lowest dosage which could shorten the a-wave and b-wave latent period of rats electroretinogram to the greatest extent [1]: 40 mg/kg
a-wave amplitude of electroretinogram ([1]; MNU 30 mg/kg, 12 h): 42.24 ± 7.71
a-wave latent period of electroretinogram ([1]; MNU 30 mg/kg, 12 h): 17.97 ± 2.50
b-wave amplitude of electroretinogram ([1]; MNU 30 mg/kg, 12 h): 195.8 ± 33.45
b-wave latent period of electroretinogram ([1]; MNU 30 mg/kg, 12 h): 73.7 ± 6.94
Number of Eyes with extinguished electroretinogram ([1]; MNU 30 mg/kg, 12 h): 0
a-wave amplitude of electroretinogram ([1]; MNU 30 mg/kg, 1 d): 34.10 ± 6.35
a-wave latent period of electroretinogram ([1]; MNU 30 mg/kg, 1 d): 17.82 ± 2.59
b-wave amplitude of electroretinogram ([1]; MNU 30 mg/kg, 1 d): 153.6 ± 28.76
b-wave latent period of electroretinogram ([1]; MNU 30 mg/kg, 1 d): 70.41 ± 6.11
Number of Eyes with extinguished electroretinogram ([1]; MNU 30 mg/kg, 1 d): 0
a-wave amplitude of electroretinogram ([1]; MNU 30 mg/kg, 3 d): 33.14 ± 9.15
a-wave latent period of electroretinogram ([1]; MNU 30 mg/kg, 3 d): 17.44 ± 2.40
b-wave amplitude of electroretinogram ([1]; MNU 30 mg/kg, 3 d): 132.0 ± 24.85
b-wave latent period of electroretinogram ([1]; MNU 30 mg/kg, 3 d): 67.42 ± 7.05
Number of Eyes with extinguished electroretinogram ([1]; MNU 30 mg/kg, 3 d): 0
a-wave amplitude of electroretinogram ([1]; MNU 30 mg/kg, 7 d): 41.11 ± 10.14
a-wave latent period of electroretinogram ([1]; MNU 30 mg/kg, 7 d): 17.66 ± 2.55
b-wave amplitude of electroretinogram ([1]; MNU 30 mg/kg, 7 d): 156.5 ± 34.85
b-wave latent period of electroretinogram ([1]; MNU 30 mg/kg, 7 d): 70.28 ± 6.02
Number of Eyes with extinguished electroretinogram ([1]; MNU 30 mg/kg, 7 d): 0
a-wave amplitude of electroretinogram ([1]; MNU 30 mg/kg, 10 d): 44.17 ± 11.13
a-wave latent period of electroretinogram ([1]; MNU 30 mg/kg, 10 d): 17.30 ± 2.24
b-wave amplitude of electroretinogram ([1]; MNU 30 mg/kg, 10 d): 188.7 ± 27.7
b-wave latent period of electroretinogram ([1]; MNU 30 mg/kg, 10 d): 70.31 ± 7.29
Number of Eyes with extinguished electroretinogram ([1]; MNU 30 mg/kg, 10 d): 0
a-wave amplitude of electroretinogram ([1]; MNU 35 mg/kg, 12 h): 40.34 ± 8.37
a-wave latent period of electroretinogram ([1]; MNU 35 mg/kg, 12 h): 17.32 ± 5.87
b-wave amplitude of electroretinogram ([1]; MNU 35 mg/kg, 12 h): 185.3 ± 23.41
b-wave latent period of electroretinogram ([1]; MNU 35 mg/kg, 12 h): 73.61 ± 6.37
Number of Eyes with extinguished electroretinogram ([1]; MNU 35 mg/kg, 12 h): 0
a-wave amplitude of electroretinogram ([1]; MNU 35 mg/kg, 1 d): 33.20 ± 12.11
a-wave latent period of electroretinogram ([1]; MNU 35 mg/kg, 1 d): 16.98 ± 2.46
b-wave amplitude of electroretinogram ([1]; MNU 35 mg/kg, 1 d): 107.52 ± 17.38
b-wave latent period of electroretinogram ([1]; MNU 35 mg/kg, 1 d): 73.12 ± 6.69
Number of Eyes with extinguished electroretinogram ([1]; MNU 35 mg/kg, 1 d): 0
a-wave amplitude of electroretinogram ([1]; MNU 35 mg/kg, 3 d): 30.38 ± 9.61
a-wave latent period of electroretinogram ([1]; MNU 35 mg/kg, 3 d): 16.83 ± 2.62
b-wave amplitude of electroretinogram ([1]; MNU 35 mg/kg, 3 d): 104.88 ± 21.83
b-wave latent period of electroretinogram ([1]; MNU 35 mg/kg, 3 d): 68.15 ± 6.68
Number of Eyes with extinguished electroretinogram ([1]; MNU 35 mg/kg, 3 d): 0
a-wave amplitude of electroretinogram ([1]; MNU 35 mg/kg, 7 d): 36.75 ± 7.28
a-wave latent period of electroretinogram ([1]; MNU 35 mg/kg, 7 d): 17.77 ± 2.25
b-wave amplitude of electroretinogram ([1]; MNU 35 mg/kg, 7 d): 135.44 ± 22.58
b-wave latent period of electroretinogram ([1]; MNU 35 mg/kg, 7 d): 73.37 ± 7.73
Number of Eyes with extinguished electroretinogram ([1]; MNU 35 mg/kg, 7 d): 0
a-wave amplitude of electroretinogram ([1]; MNU 35 mg/kg, 10 d): 40.76 ± 8.92
a-wave latent period of electroretinogram ([1]; MNU 35 mg/kg, 10 d): 17.46 ± 2.41
b-wave amplitude of electroretinogram ([1]; MNU 35 mg/kg, 10 d): 168.7 ± 32.14
b-wave latent period of electroretinogram ([1]; MNU 35 mg/kg, 10 d): 73.51 ± 5.61
Number of Eyes with extinguished electroretinogram ([1]; MNU 35 mg/kg, 10 d): 0
a-wave amplitude of electroretinogram ([1]; MNU 40 mg/kg, 12 h): 17.18 ± 15.90
a-wave latent period of electroretinogram ([1]; MNU 40 mg/kg, 12 h): 10.53 ± 9.18
b-wave amplitude of electroretinogram ([1]; MNU 40 mg/kg, 12 h): 54.40 ± 46.33
b-wave latent period of electroretinogram ([1]; MNU 40 mg/kg, 12 h): 41.09 ± 35.82
Number of Eyes with extinguished electroretinogram ([1]; MNU 40 mg/kg, 12 h): 4
a-wave amplitude of electroretinogram ([1]; MNU 40 mg/kg, 1 d): 9.44 ± 12.38
a-wave latent period of electroretinogram ([1]; MNU 40 mg/kg, 1 d): 7.02 ± 9.15
b-wave amplitude of electroretinogram ([1]; MNU 40 mg/kg, 1 d): 23.09 ± 30.15
b-wave latent period of electroretinogram ([1]; MNU 40 mg/kg, 1 d): 27.85 ± 36.29
Number of Eyes with extinguished electroretinogram ([1]; MNU 40 mg/kg, 1 d): 6
a-wave amplitude of electroretinogram ([1]; MNU 40 mg/kg, 3 d): 3.62 ± 7.66
a-wave latent period of electroretinogram ([1]; MNU 40 mg/kg, 3 d): 3.17 ± 6.69
b-wave amplitude of electroretinogram ([1]; MNU 40 mg/kg, 3 d): 12.23 ± 26.02
b-wave latent period of electroretinogram ([1]; MNU 40 mg/kg, 3 d): 12.20 ± 4.24
Number of Eyes with extinguished electroretinogram ([1]; MNU 40 mg/kg, 3 d): 8
a-wave amplitude of electroretinogram ([1]; MNU 40 mg/kg, 7 d): 4.23 ± 9.27
a-wave latent period of electroretinogram ([1]; MNU 40 mg/kg, 7 d): 3.37 ± 7.15
b-wave amplitude of electroretinogram ([1]; MNU 40 mg/kg, 7 d): 13.14 ± 27.85
b-wave latent period of electroretinogram ([1]; MNU 40 mg/kg, 7 d): 12.33 ± 26.05
Number of Eyes with extinguished electroretinogram ([1]; MNU 40 mg/kg, 7 d): 8
a-wave amplitude of electroretinogram ([1]; MNU 40 mg/kg, 10 d): 9.54 ± 12.89
a-wave latent period of electroretinogram ([1]; MNU 40 mg/kg, 10 d): 6.64 ± 8.61
b-wave amplitude of electroretinogram ([1]; MNU 40 mg/kg, 10 d): 24.25 ± 31.58
b-wave latent period of electroretinogram ([1]; MNU 40 mg/kg, 10 d): 27.31 ± 35.56
Number of Eyes with extinguished electroretinogram ([1]; MNU 40 mg/kg, 10 d): 6
a-wave amplitude of electroretinogram ([1]; MNU 45 mg/kg, 12 h): 0
a-wave latent period of electroretinogram ([1]; MNU 45 mg/kg, 12 h): 6.60 ± 9.55
b-wave amplitude of electroretinogram ([1]; MNU 45 mg/kg, 12 h): 0
b-wave latent period of electroretinogram ([1]; MNU 45 mg/kg, 12 h): 25.08 ± 8.55
Number of Eyes with extinguished electroretinogram ([1]; MNU 45 mg/kg, 12 h): 6
a-wave amplitude of electroretinogram ([1]; MNU 45 mg/kg, 1 d): 0
a-wave latent period of electroretinogram ([1]; MNU 45 mg/kg, 1 d): 0
b-wave amplitude of electroretinogram ([1]; MNU 45 mg/kg, 1 d): 0
b-wave latent period of electroretinogram ([1]; MNU 45 mg/kg, 1 d): 0
Number of Eyes with extinguished electroretinogram ([1]; MNU 45 mg/kg, 1 d): 10
a-wave amplitude of electroretinogram ([1]; MNU 45 mg/kg, 3 d): 0
a-wave latent period of electroretinogram ([1]; MNU 45 mg/kg, 3 d): 0
b-wave amplitude of electroretinogram ([1]; MNU 45 mg/kg, 3 d): 0
b-wave latent period of electroretinogram ([1]; MNU 45 mg/kg, 3 d): 0
Number of Eyes with extinguished electroretinogram ([1]; MNU 45 mg/kg, 3 d): 10
a-wave amplitude of electroretinogram ([1]; MNU 45 mg/kg, 7 d): 0
a-wave latent period of electroretinogram ([1]; MNU 45 mg/kg, 7 d): 0
b-wave amplitude of electroretinogram ([1]; MNU 45 mg/kg, 7 d): 0
b-wave latent period of electroretinogram ([1]; MNU 45 mg/kg, 7 d): 0
Number of Eyes with extinguished electroretinogram ([1]; MNU 45 mg/kg, 7 d): 10
a-wave amplitude of electroretinogram ([1]; MNU 45 mg/kg, 10 d): 4.89 ± 10.48
a-wave latent period of electroretinogram ([1]; MNU 45 mg/kg, 10 d): 6.47 ± 7.33
b-wave amplitude of electroretinogram ([1]; MNU 45 mg/kg, 10 d): 11.31 ± 23.93
b-wave latent period of electroretinogram ([1]; MNU 45 mg/kg, 10 d): 14.42 ± 30.46
Number of Eyes with extinguished electroretinogram ([1]; MNU 45 mg/kg, 10 d): 8
a-wave amplitude of electroretinogram ([1]; MNU 50 mg/kg, 12 h): 0
a-wave latent period of electroretinogram ([1]; MNU 50 mg/kg, 12 h): 0
Number of Eyes with extinguished electroretinogram ([1]; MNU 50 mg/kg, 12 h): 10
a-wave amplitude of electroretinogram ([1]; MNU 50 mg/kg, 1 d): 0
a-wave latent period of electroretinogram ([1]; MNU 50 mg/kg, 1 d): 0
Number of Eyes with extinguished electroretinogram ([1]; MNU 50 mg/kg, 1 d): 10
a-wave amplitude of electroretinogram ([1]; MNU 50 mg/kg, 3 d): 0
a-wave latent period of electroretinogram ([1]; MNU 50 mg/kg, 3 d): 0
Number of Eyes with extinguished electroretinogram ([1]; MNU 50 mg/kg, 3 d): 10
a-wave amplitude of electroretinogram ([1]; MNU 50 mg/kg, 7 d): 0
a-wave latent period of electroretinogram ([1]; MNU 50 mg/kg, 7 d): 0
Number of Eyes with extinguished electroretinogram ([1]; MNU 50 mg/kg, 7 d): 10
a-wave amplitude of electroretinogram ([1]; MNU 50 mg/kg, 10 d): 0
a-wave latent period of electroretinogram ([1]; MNU 50 mg/kg, 10 d): 0
Number of Eyes with extinguished electroretinogram ([1]; MNU 50 mg/kg, 10 d): 10
minimum dosage that could cause damage to the entire outer nuclear layer cell of rat retinal [2]: 40 mg/kg
Damage score of rat retinal photoreceptor cells ([2]; MNU 30 mg/kg, 12 h): 0.20 ± 0.42
Damage score of rat retinal photoreceptor cells ([2]; MNU 30 mg/kg, 1 d): 0.40 ± 0.52
Damage score of rat retinal photoreceptor cells ([2]; MNU 30 mg/kg, 3 d): 0.40 ± 0.52
Damage score of rat retinal photoreceptor cells ([2]; MNU 30 mg/kg, 7 d): 0.20 ± 0.42
Damage score of rat retinal photoreceptor cells ([2]; MNU 30 mg/kg, 10 d): 0
Damage score of rat retinal photoreceptor cells ([2]; MNU 35 mg/kg, 12 h): 0.20 ± 0.42
Damage score of rat retinal photoreceptor cells ([2]; MNU 35 mg/kg, 1 d): 0.60 ± 0.52
Damage score of rat retinal photoreceptor cells ([2]; MNU 35 mg/kg, 3 d): 0.80 ± 0.42
Damage score of rat retinal photoreceptor cells ([2]; MNU 35 mg/kg, 7 d): 0.40 ± 0.52
Damage score of rat retinal photoreceptor cells ([2]; MNU 35 mg/kg, 10 d): 0
Damage score of rat retinal photoreceptor cells ([2]; MNU 40 mg/kg, 12 h): 1.00 ± 0.67
Damage score of rat retinal photoreceptor cells ([2]; MNU 40 mg/kg, 1 d): 2.20 ± 1.03
Damage score of rat retinal photoreceptor cells ([2]; MNU 40 mg/kg, 3 d): 4.60 ± 3.10
Damage score of rat retinal photoreceptor cells ([2]; MNU 40 mg/kg, 7 d): 7.60 ± 6.29
Damage score of rat retinal photoreceptor cells ([2]; MNU 40 mg/kg, 10 d): 7.40 ± 6.44
Damage score of rat retinal photoreceptor cells ([2]; MNU 45 mg/kg, 12 h): 1.6 ± 0.52
Damage score of rat retinal photoreceptor cells ([2]; MNU 45 mg/kg, 1 d): 4.00 ± 2.31
Damage score of rat retinal photoreceptor cells ([2]; MNU 45 mg/kg, 3 d): 6.80 ± 5.27
Damage score of rat retinal photoreceptor cells ([2]; MNU 45 mg/kg, 7 d): 9.60 ± 5.95
Damage score of rat retinal photoreceptor cells ([2]; MNU 45 mg/kg, 10 d): 9.20 ± 6.20
Damage score of rat retinal photoreceptor cells ([2]; MNU 50 mg/kg, 12 h): 2.40 ± 1.43
Damage score of rat retinal photoreceptor cells ([2]; MNU 50 mg/kg, 1 d): 6.80 ± 5.27
Damage score of rat retinal photoreceptor cells ([2]; MNU 50 mg/kg, 3 d): 10.04 ± 5.06
Damage score of rat retinal photoreceptor cells ([2]; MNU 50 mg/kg, 7 d): 11.20 ± 5.27
Damage score of rat retinal photoreceptor cells ([2]; MNU 50 mg/kg, 10 d): 11.20 ± 5.27
